Assay results reported in US20250333397A1 (REMIX THERAPEUTICS INC., priority 2021, published 2025).
pIC50: −log10 of the molar value. Read-outs that look alike come from different tables or passages of the source.

Tests used:
Type in all cases: cell-based, human
MYB mRNA = assay: RT-qPCR splicing assay, MYB canonical (CJ) and alternative (AJ) junction mRNA; conditions: Homo sapiens; for AC50: read-out: MYB AJ (AC50, increase in AJ mRNA)
Procedure, shortened: (§1)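 Junction-specific RT-qPCR read the canonical exon-exon junction and the compound-induced alternative-exon junction, normalized to GAPDH, GUSB or PPIA and then to DMSO (2^(-ΔΔCt)). Input was lysate from A673 or K562 cells exposed for 24 h to compound up to 10 uM.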

SMN2 mRNA = assay: RT-qPCR splicing assay panel, SMN2 canonical junction (CJ) mRNA; conditions: Homo sapiens
Procedure, shortened: as §1

Target C mRNA = assay: RT-qPCR splicing assay panel, Target C canonical junction (CJ) mRNA; conditions: Homo sapiens
Procedure, shortened: as §1

HTT mRNA = assay: RT-qPCR splicing assay, HTT canonical (CJ) and alternative (AJ) junction mRNA; conditions: Homo sapiens; for AC50: read-out: HTT AJ (AC50, increase in AJ mRNA)
Procedure, shortened: as §1

[1] = 24 h, Table 3A, A673 or K562 cells, 24 h treatment
[2] = 24 h, Table 3A, A673 or K562 cells, 24 h treatment, read-out: MYB CJ (IC50, decrease in CJ mRNA)
[3] = canonical junction (CJ) mRNA, RT-qPCR panel, Table 4A, read-out: MYB, decrease in CJ mRNA levels, IC50
[4] = canonical junction (CJ) mRNA, RT-qPCR panel, Table 4A, read-out: SMN2, decrease in CJ mRNA levels, IC50
[5] = canonical junction (CJ) mRNA, RT-qPCR panel, Table 4A, read-out: Target C, decrease in CJ mRNA levels, IC50
[6] = 24 h, Table 3A, A673 or K562 cells, 24 h treatment, read-out: HTT CJ (IC50, decrease in CJ mRNA)
[7] = canonical junction (CJ) mRNA, RT-qPCR panel, Table 4A, read-out: HTT, decrease in CJ mRNA levels, IC50
[8] = 24 h, Table 3B, A673 or K562 cells, 24 h treatment
[9] = 24 h, Table 3B, A673 or K562 cells, 24 h treatment, read-out: MYB CJ (IC50, decrease in CJ mRNA)
[10] = Table 4B, gene panel, read-out: MYB (IC50, decrease in CJ mRNA levels)
[11] = Table 4B, gene panel, read-out: SMN2 (IC50, decrease in CJ mRNA levels)
[12] = Table 4B, gene panel, read-out: Target C (IC50, decrease in CJ mRNA levels)
[13] = 24 h, Table 3B, A673 or K562 cells, 24 h treatment, read-out: HTT CJ (IC50, decrease in CJ mRNA)
[14] = Table 4B, gene panel, read-out: HTT (IC50, decrease in CJ mRNA levels)

Row | SMILES | AC50 (MYB mRNA; [1]) | pIC50 (MYB mRNA; [2]) | pIC50 (MYB mRNA; [3]) | pIC50 (SMN2 mRNA; [4]) | pIC50 (Target C mRNA; [5]) | AC50 (HTT mRNA; [1]) | pIC50 (HTT mRNA; [6]) | pIC50 (HTT mRNA; [7]) | AC50 (MYB mRNA; [8]) | pIC50 (MYB mRNA; [9]) | pIC50 (MYB mRNA; [10]) | pIC50 (SMN2 mRNA; [11]) | pIC50 (Target C mRNA; [12]) | AC50 (HTT mRNA; [8]) | pIC50 (HTT mRNA; [13]) | pIC50 (HTT mRNA; [14])
1 | Cc1cn(-c2cc(O)c(-c3ccc(N4CC[C@H](NC5CCC5)C4)nn3)cc2F)cn1 [Compound 227, 2-{6-[(3S)-3-(cyclobutylamino)pyrrolidin-1-yl]pyridazin-3-yl}-4-fluoro-5-(4-methylimidazol-1-yl)phenol] | 0.1 to 1 µM | 6.00 to 7.00 | 6.00 to 7.00 | > 7.00 | 6.00 to 7.00 | < 0.1 µM | > 7.00 | > 7.00 | – | – | – | – | – | – | – | –
2 | Cc1nc2ccc(-c3ccc(N4CCC(NC(C)(C)C)C4)nn3)nc2o1 (stereo not drawn) [Compound 832] | – | – | – | – | – | – | – | – | 0.1 to 1 µM | 6.00 to 7.00 | 6.00 to 7.00 | > 7.00 | 6.00 to 7.00 | 0.1 to 1 µM | > 7.00 | > 7.00
3 | Cc1cc(-c2ccc(-c3ccc(N4CC[C@H](NC5CCC5)C4)nn3)c(O)c2)cnn1 [Compound 291, 2-{6-[(3S)-3-(cyclobutylamino)pyrrolidin-1-yl]pyridazin-3-yl}-5-(6-methylpyridazin-4-yl)phenol] | > 10 µM | < 5.00 | < 5.00 | 5.00 to 6.00 | < 5.00 | > 10 µM | 5.00 to 6.00 | 5.00 to 6.00 | – | – | – | – | – | – | – | –
4 | CCOc1cc(-c2ccc(-c3ccc(N4CC[C@@H](NC5CCC5)C4)nn3)c(O)c2)cnn1 [Compound 301] | > 10 µM | < 5.00 | < 5.00 | 5.00 to 6.00 | < 5.00 | > 10 µM | < 5.00 | < 5.00 | – | – | – | – | – | – | – | –
5 | Oc1cc(-c2cnnc(C3CC3)c2)ccc1-c1ccc(N2CC[C@H](NC3CCC3)C2)nn1 [Compound 280] | > 10 µM | 5.00 to 6.00 | 5.00 to 6.00 | 6.00 to 7.00 | < 5.00 | 1 to 10 µM | 5.00 to 6.00 | 5.00 to 6.00 | – | – | – | – | – | – | – | –
6 | COc1cc(-c2cc(O)c(-c3ccc(N4CCC(N[C@H]5C[C@H](F)C5)C4)nn3)cc2F)cnn1 (stereo partly drawn) [Compound 274] | 0.1 to 1 µM | 6.00 to 7.00 | 6.00 to 7.00 | > 7.00 | 6.00 to 7.00 | 0.1 to 1 µM | > 7.00 | > 7.00 | – | – | – | – | – | – | – | –
7 | Cc1ncc(-c2ccc(-c3ccc(N4CC[C@H](NCC5CC5)C4)nn3)c(O)c2)s1 [Compound 380, 2-{6-[(3S)-3-[(cyclopropylmethyl)amino]pyrrolidin-1-yl]pyridazin-3-yl}-5-(2-methyl-1,3-thiazol-5-yl)phenol] | < 0.1 µM | > 7.00 | > 7.00 | > 7.00 | > 7.00 | < 0.1 µM | > 7.00 | > 7.00 | – | – | – | – | – | – | – | –
8 | Cc1nnc(-c2cc(O)c(-c3ccc(N4CC[C@H](NCC5CC5)C4)nn3)cc2F)s1 [Compound 401] | 1 to 10 µM | 5.00 to 6.00 | 5.00 to 6.00 | 6.00 to 7.00 | 6.00 to 7.00 | 0.1 to 1 µM | 6.00 to 7.00 | 6.00 to 7.00 | – | – | – | – | – | – | – | –
9 | Cn1ncc(-c2ccc(-c3ccc(N4CC[C@H](NC(C)(C)C)C4)nn3)c(O)c2)cc1=O [Compound 298, 5-(4-{6-[(3S)-3-(tert-butylamino)pyrrolidin-1-yl]pyridazin-3-yl}-3-hydroxyphenyl)-2-methylpyridazin-3-one] | 0.1 to 1 µM | 6.00 to 7.00 | 6.00 to 7.00 | > 7.00 | 6.00 to 7.00 | 0.1 to 1 µM | > 7.00 | > 7.00 | – | – | – | – | – | – | – | –
10 | Cc1ncc(-c2cc(O)c(-c3ccc(N4CC[C@](C)(NCC5CC5)C4)nn3)cc2F)s1 (single isomer, unassigned) [Compound 400] | 0.1 to 1 µM | 6.00 to 7.00 | 6.00 to 7.00 | > 7.00 | > 7.00 | < 0.1 µM | > 7.00 | > 7.00 | – | – | – | – | – | – | – | –
11 | Cc1nc2cc(O)c(-c3ccc(N4CC[C@H](NC(C)(C)C(C)C)C4)nn3)cc2o1 [Compound 875] | – | – | – | – | – | – | – | – | 0.1 to 1 µM | 6.00 to 7.00 | 6.00 to 7.00 | > 7.00 | 6.00 to 7.00 | < 0.1 µM | > 7.00 | > 7.00
12 | Cc1nc2cc(O)c(-c3ccc(N4CC[C@@H](NC(C)(C)C(C)C)C4)nn3)cc2o1 [Compound 874] | – | – | – | – | – | – | – | – | 0.1 to 1 µM | 6.00 to 7.00 | 6.00 to 7.00 | > 7.00 | 6.00 to 7.00 | < 0.1 µM | > 7.00 | > 7.00
13 | COc1cc(-c2cc(O)c(-c3ccc(N4CC[C@@H](NC5CCC5)C4)nn3)cc2F)cnn1 [Compound 230, 2-{6-[(3R)-3-(cyclobutylamino)pyrrolidin-1-yl]pyridazin-3-yl}-4-fluoro-5-(6-methoxypyridazin-4-yl)phenol] | 1 to 10 µM | 5.00 to 6.00 | 5.00 to 6.00 | > 7.00 | 5.00 to 6.00 | 0.1 to 1 µM | 6.00 to 7.00 | 6.00 to 7.00 | – | – | – | – | – | – | – | –
14 | Cc1ncc(-c2ccc(-c3ccc(N4CCC(NC5CCC5)C4)nn3)nc2F)s1 (stereo not drawn) [Compound 349] | 0.1 to 1 µM | 6.00 to 7.00 | 6.00 to 7.00 | 6.00 to 7.00 | 5.00 to 6.00 | 0.1 to 1 µM | 6.00 to 7.00 | 6.00 to 7.00 | – | – | – | – | – | – | – | –
15 | Cc1nc2cc(O)c(-c3ccc(N4CCC(NC(C)(C)C(C)C)C4)nn3)cc2o1 (stereo not drawn) [Compound 862] | – | – | – | – | – | – | – | – | 1 to 10 µM | 5.00 to 6.00 | 5.00 to 6.00 | 6.00 to 7.00 | 5.00 to 6.00 | 0.1 to 1 µM | 6.00 to 7.00 | 6.00 to 7.00
